Reference: paper PMC9288506, “Compounds activating VCP D1 ATPase enhance both autophagic and proteasomal neurotoxic protein clearance” (Nature Communications, 2022)

Target: T1, VCP (p97, Valosin-containing protein) (Homo sapiens, UniProt P55072)
T1 construct: Full-length VCP (6xHis-tag)
Experiment: SPR
Type: binding

T1 sequence (P55072 2-806): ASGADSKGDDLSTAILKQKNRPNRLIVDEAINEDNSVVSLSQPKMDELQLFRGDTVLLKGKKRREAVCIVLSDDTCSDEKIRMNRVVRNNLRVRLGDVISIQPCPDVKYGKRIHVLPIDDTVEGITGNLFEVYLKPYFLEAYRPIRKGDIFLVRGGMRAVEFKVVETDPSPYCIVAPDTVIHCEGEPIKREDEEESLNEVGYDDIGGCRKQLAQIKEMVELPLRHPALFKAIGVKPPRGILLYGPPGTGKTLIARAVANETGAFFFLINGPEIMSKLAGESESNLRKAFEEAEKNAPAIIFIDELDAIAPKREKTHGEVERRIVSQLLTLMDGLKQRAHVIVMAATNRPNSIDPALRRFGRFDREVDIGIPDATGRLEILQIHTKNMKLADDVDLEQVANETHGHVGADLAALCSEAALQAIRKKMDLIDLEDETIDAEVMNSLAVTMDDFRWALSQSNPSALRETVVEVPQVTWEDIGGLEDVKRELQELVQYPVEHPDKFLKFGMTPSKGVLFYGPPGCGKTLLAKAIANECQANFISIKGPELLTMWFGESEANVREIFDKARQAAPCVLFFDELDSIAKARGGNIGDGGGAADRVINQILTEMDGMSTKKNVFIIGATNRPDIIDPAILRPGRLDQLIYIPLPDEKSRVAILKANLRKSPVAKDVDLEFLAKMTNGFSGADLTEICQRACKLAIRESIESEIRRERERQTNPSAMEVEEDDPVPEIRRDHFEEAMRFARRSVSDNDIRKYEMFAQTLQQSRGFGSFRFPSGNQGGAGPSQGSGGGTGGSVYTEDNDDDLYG

SMILES | Kd [nM]
Nc1ncnc2c1ncn2[C@@H]1O[C@H](COP(=O)(O)OP(=O)(O)O)[C@@H](O)[C@H]1O [ADP] | ~800
COc1cccc2c(NCc3ccccc3)nc(-n3c(N)nc4ccccc43)nc12 [ML240] | 230 ± 30
